# Tested on: Transport facilitation protein genes
# Assay: DNA chip mRNA expression in yeast, transport facilitation protein genes (Table 5)
# Assay type: cell-based, Saccharomyces cerevisiae S288C
# Method in brief: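 Cells were grown at 25° C. in YPD, treated at logarithmic phase for 2 h with a chemical at a concentration inhibiting growth but not causing death, and compared with untreated cultures. Labeled cDNA was hybridized to a DNA chip carrying all yeast genes, and the expression ratio was taken from scanner fluorescence.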
smiles,measurement,setting,value
"CN(C)C(=S)SSC(=S)N(C)C [(10), Tetramethylthiuram disulfide]",The level of expressed mRNA in the presence of chemical substance/The level of expressed mRNA in the absence of chemical substance,yeast gene YBL030C,0.9
same,The level of expressed mRNA in the presence of chemical substance/The level of expressed mRNA in the absence of chemical substance,yeast gene YBL099W,0.7
same,The level of expressed mRNA in the presence of chemical substance/The level of expressed mRNA in the absence of chemical substance,yeast gene YBR052C,2.5
same,The level of expressed mRNA in the presence of chemical substance/The level of expressed mRNA in the absence of chemical substance,yeast gene YBR068C,2.5
same,The level of expressed mRNA in the presence of chemical substance/The level of expressed mRNA in the absence of chemical substance,yeast gene YBR127C,1.3
same,The level of expressed mRNA in the presence of chemical substance/The level of expressed mRNA in the absence of chemical substance,yeast gene YBR132C,1.1
same,The level of expressed mRNA in the presence of chemical substance/The level of expressed mRNA in the absence of chemical substance,yeast gene YBR207W,2.2
same,The level of expressed mRNA in the presence of chemical substance/The level of expressed mRNA in the absence of chemical substance,yeast gene YBR293W,2.4
same,The level of expressed mRNA in the presence of chemical substance/The level of expressed mRNA in the absence of chemical substance,yeast gene YBR294W,5.2
same,The level of expressed mRNA in the presence of chemical substance/The level of expressed mRNA in the absence of chemical substance,yeast gene YBR295W,3.3
same,The level of expressed mRNA in the presence of chemical substance/The level of expressed mRNA in the absence of chemical substance,yeast gene YBR298C,1.1
same,The level of expressed mRNA in the presence of chemical substance/The level of expressed mRNA in the absence of chemical substance,yeast gene YCL025C,0.3
same,The level of expressed mRNA in the presence of chemical substance/The level of expressed mRNA in the absence of chemical substance,yeast gene YCL038C,0.9
same,The level of expressed mRNA in the presence of chemical substance/The level of expressed mRNA in the absence of chemical substance,yeast gene YCR024C-A,0.7
same,The level of expressed mRNA in the presence of chemical substance/The level of expressed mRNA in the absence of chemical substance,yeast gene YCR037C,0.6
same,The level of expressed mRNA in the presence of chemical substance/The level of expressed mRNA in the absence of chemical substance,yeast gene YCR098C,2.4
same,The level of expressed mRNA in the presence of chemical substance/The level of expressed mRNA in the absence of chemical substance,yeast gene YDL128W,0.7
same,The level of expressed mRNA in the presence of chemical substance/The level of expressed mRNA in the absence of chemical substance,yeast gene YDL198C,2.7
same,The level of expressed mRNA in the presence of chemical substance/The level of expressed mRNA in the absence of chemical substance,yeast gene YDL206W,1.5
same,The level of expressed mRNA in the presence of chemical substance/The level of expressed mRNA in the absence of chemical substance,yeast gene YDL210W,1.4
same,The level of expressed mRNA in the presence of chemical substance/The level of expressed mRNA in the absence of chemical substance,yeast gene YDL245C,2.8
same,The level of expressed mRNA in the presence of chemical substance/The level of expressed mRNA in the absence of chemical substance,yeast gene YDR038C,0.9
same,The level of expressed mRNA in the presence of chemical substance/The level of expressed mRNA in the absence of chemical substance,yeast gene YDR039C,1.0
same,The level of expressed mRNA in the presence of chemical substance/The level of expressed mRNA in the absence of chemical substance,yeast gene YDR086C,0.8
same,The level of expressed mRNA in the presence of chemical substance/The level of expressed mRNA in the absence of chemical substance,yeast gene YDR270W,3.6
same,The level of expressed mRNA in the presence of chemical substance/The level of expressed mRNA in the absence of chemical substance,yeast gene YDR298C,1.6
same,The level of expressed mRNA in the presence of chemical substance/The level of expressed mRNA in the absence of chemical substance,yeast gene YDR342C,2.2
same,The level of expressed mRNA in the presence of chemical substance/The level of expressed mRNA in the absence of chemical substance,yeast gene YDR343C,2.1
same,The level of expressed mRNA in the presence of chemical substance/The level of expressed mRNA in the absence of chemical substance,yeast gene YDR345C,1.1
same,The level of expressed mRNA in the presence of chemical substance/The level of expressed mRNA in the absence of chemical substance,yeast gene YDR387C,2.0
same,The level of expressed mRNA in the presence of chemical substance/The level of expressed mRNA in the absence of chemical substance,yeast gene YDR497C,0.8
same,The level of expressed mRNA in the presence of chemical substance/The level of expressed mRNA in the absence of chemical substance,yeast gene YEL027W,1.1
same,The level of expressed mRNA in the presence of chemical substance/The level of expressed mRNA in the absence of chemical substance,yeast gene YEL063C,1.7
same,The level of expressed mRNA in the presence of chemical substance/The level of expressed mRNA in the absence of chemical substance,yeast gene YEL065W,4.9
same,The level of expressed mRNA in the presence of chemical substance/The level of expressed mRNA in the absence of chemical substance,yeast gene YER053C,3.9
same,The level of expressed mRNA in the presence of chemical substance/The level of expressed mRNA in the absence of chemical substance,yeast gene YER119C,1.2
same,The level of expressed mRNA in the presence of chemical substance/The level of expressed mRNA in the absence of chemical substance,yeast gene YFL011W,1.6
same,The level of expressed mRNA in the presence of chemical substance/The level of expressed mRNA in the absence of chemical substance,yeast gene YFL041W,5.1
same,The level of expressed mRNA in the presence of chemical substance/The level of expressed mRNA in the absence of chemical substance,yeast gene YFL050C,1.6
same,The level of expressed mRNA in the presence of chemical substance/The level of expressed mRNA in the absence of chemical substance,yeast gene YFL054C,2.3
same,The level of expressed mRNA in the presence of chemical substance/The level of expressed mRNA in the absence of chemical substance,yeast gene YFL055W,6.5
same,The level of expressed mRNA in the presence of chemical substance/The level of expressed mRNA in the absence of chemical substance,yeast gene YGL006W,1.2
same,The level of expressed mRNA in the presence of chemical substance/The level of expressed mRNA in the absence of chemical substance,yeast gene YGL008C,0.4
same,The level of expressed mRNA in the presence of chemical substance/The level of expressed mRNA in the absence of chemical substance,yeast gene YGL104C,2.1
same,The level of expressed mRNA in the presence of chemical substance/The level of expressed mRNA in the absence of chemical substance,yeast gene YGL167C,1.1
same,The level of expressed mRNA in the presence of chemical substance/The level of expressed mRNA in the absence of chemical substance,yeast gene YGL255W,5.0
same,The level of expressed mRNA in the presence of chemical substance/The level of expressed mRNA in the absence of chemical substance,yeast gene YGR055W,2.4
same,The level of expressed mRNA in the presence of chemical substance/The level of expressed mRNA in the absence of chemical substance,yeast gene YGR065C,2.6
same,The level of expressed mRNA in the presence of chemical substance/The level of expressed mRNA in the absence of chemical substance,yeast gene YGR082W,0.9
same,The level of expressed mRNA in the presence of chemical substance/The level of expressed mRNA in the absence of chemical substance,yeast gene YGR096W,0.8
same,The level of expressed mRNA in the presence of chemical substance/The level of expressed mRNA in the absence of chemical substance,yeast gene YGR138C,1.0
same,The level of expressed mRNA in the presence of chemical substance/The level of expressed mRNA in the absence of chemical substance,yeast gene YGR191W,0.7
same,The level of expressed mRNA in the presence of chemical substance/The level of expressed mRNA in the absence of chemical substance,yeast gene YGR197C,3.2
same,The level of expressed mRNA in the presence of chemical substance/The level of expressed mRNA in the absence of chemical substance,yeast gene YGR224W,0.9
same,The level of expressed mRNA in the presence of chemical substance/The level of expressed mRNA in the absence of chemical substance,yeast gene YGR260W,0.4

# Reference: US8192962B2, “Processes for detecting toxic substances” (Daikin Industries, Ltd., priority 2001, dated 2012)
